This note sets out measurements from article PMC8474115 (Journal of Medicinal Chemistry, 2021).

One data set concerns the target T1, 5-HT3R (Cavia porcellus, UniProt O70212).
T1 sequence (O70212 20-490): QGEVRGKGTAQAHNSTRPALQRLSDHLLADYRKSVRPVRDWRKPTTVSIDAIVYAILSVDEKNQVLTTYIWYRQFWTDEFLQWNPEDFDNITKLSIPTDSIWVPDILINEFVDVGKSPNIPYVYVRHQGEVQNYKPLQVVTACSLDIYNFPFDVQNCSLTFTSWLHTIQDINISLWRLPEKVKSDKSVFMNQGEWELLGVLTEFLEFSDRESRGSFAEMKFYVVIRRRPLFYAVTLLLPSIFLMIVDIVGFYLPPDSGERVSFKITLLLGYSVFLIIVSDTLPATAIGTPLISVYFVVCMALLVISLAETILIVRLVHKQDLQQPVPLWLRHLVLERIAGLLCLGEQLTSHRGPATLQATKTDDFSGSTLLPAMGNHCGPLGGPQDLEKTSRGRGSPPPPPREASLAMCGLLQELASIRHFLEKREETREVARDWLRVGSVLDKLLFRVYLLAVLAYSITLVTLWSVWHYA
The following applies: for functional classification at 5-HT3R: guinea pig ileum contraction; for antagonist effect: percent inhibition of response to 5-HT 3 μM (contraction of guinea pig ileum).

The target in data set [1] is T2, h5-HT6R (Homo sapiens, UniProt P50406).
Description: (§1) For membrane preparation, cells after reaching 90% confluence, were washed with phosphate-buffered saline (PBS), and pelleted by centrifugation (200 × g) in PBS containing 0.1 mM EDTA and 1 mM dithiothreitol.
(§2) The total reaction volume was 200 μL. The incubation process was terminated by filtration through UniFilter-96 (PerkinElmer) plates with the FilterMate Universal Harvester (PerkinElmer, #C961962), and radioactivity retained on the filters was quantified on a MicroBeta counter for radiometric detection (PerkinElmer). […] To evaluate the level of nonspecific signal 10 μM of 5-HT for 5-HT1AR and 5-HT7R, 20 μM of mianserin for 5-HT2AR, 10 μM of methiothepine for 5-HT6R and 10 μM of haloperidol for D2LR were used. […] The acquired results were presented as the mean of at least two independent experiments.
Data set [2] addresses T2, h5-HT6R. Put plainly: Inhibition of 5-CT-induced cAMP production in 1321N1 cells expressing h5-HT6R. Details: host or cells: 1321N1. The settings on record: for Kb: cAMP; for antagonist effect: 10^–6 M, percent inhibition of control agonist response. Format: cell-based. (cAMP levels reflect the balance of adenylyl cyclase and phosphodiesterase activity.)
In a further data set the target is h5-HT7b (Homo sapiens, UniProt P34969). The settings on record: 5-HT7R.
For the next data set, the target named is h5-HT2AR (Homo sapiens, UniProt P28223). The settings on record: 5-HT2AR.
A further data set deals with hD2L (Homo sapiens, UniProt P14416). The settings on record: D2R.
The next data set concerns the target h5-HT1A (Homo sapiens, UniProt P08908). The settings on record: 5-HT1AR.
In the next data set the target is h5-HT3R (Homo sapiens, UniProt P46098). The settings on record: inhibition of inward currents in response to 5-HT (EC80).
The test system of data set [3] is male Sprague–Dawley rats. The following applies: AUC −25 to 0 min before PCP.
Description: (§3) Both spontaneous and PCP-induced locomotor activity were measured automatically in Opto-Varimex-4 Auto-Tracks (Columbus Instruments, Ohio) located in sound-attenuated and ventilated boxes. The Auto-Track System sensed the motion with a grid of infrared photocells (16 beams per axis) surrounding the arena.
(§4) Following 30 min of spontaneous activity measurement, the animals were removed from the boxes, injected with phencyclidine hydrochloride (PCP) at a dose of 5 mg/kg (SC), and then PCP-induced locomotor activity was measured for 120 min.
(§5) The measurements (30 min) preceding PCP administration indicate drug-induced effects on spontaneous locomotor activity. The second period (measured in the same animals at 0-120 min following PCP administration) indicates drug-induced alteration of PCP-induced hyperactivity.
(§6) Mixed-design two-way ANOVA with treatment(s) as between-subject factor and time as repeated measures factor on raw distance data, and separate one-way or two-way ANOVAs (on AUC data) followed by Dunnett’s multiple comparison, LSD or Tukey’s post hoc tests as well as analyses of contrast coefficients (Statistica 12 for Windows, IBM SPSS ver 26 for Mac) were used to assess the effects of compounds on activity.
In data set [4] the test system is male Sprague–Dawley rats.
Description: as §3, §4, §5, §6
Where [5] appears, read: HEK cells stably expressing h5-HT6R.

The structures appear in SMILES notation. Where a name gives a salt, the structure may show the parent alone. Read-outs that look alike come from different tables or passages of the source.

T2 sequence (P50406 whole entry): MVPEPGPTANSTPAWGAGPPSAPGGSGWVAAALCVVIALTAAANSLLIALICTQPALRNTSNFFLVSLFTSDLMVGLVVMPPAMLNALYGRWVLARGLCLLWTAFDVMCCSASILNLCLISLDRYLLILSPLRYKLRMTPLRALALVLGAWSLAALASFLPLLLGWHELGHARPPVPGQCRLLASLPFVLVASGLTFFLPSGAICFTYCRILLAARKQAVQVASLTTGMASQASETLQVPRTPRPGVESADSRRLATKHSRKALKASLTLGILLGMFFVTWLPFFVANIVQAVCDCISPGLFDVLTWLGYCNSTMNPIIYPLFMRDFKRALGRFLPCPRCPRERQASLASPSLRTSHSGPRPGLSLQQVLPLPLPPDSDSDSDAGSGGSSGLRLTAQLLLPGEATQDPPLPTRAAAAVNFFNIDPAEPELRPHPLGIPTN
Chain of hD2L (P14416 whole entry): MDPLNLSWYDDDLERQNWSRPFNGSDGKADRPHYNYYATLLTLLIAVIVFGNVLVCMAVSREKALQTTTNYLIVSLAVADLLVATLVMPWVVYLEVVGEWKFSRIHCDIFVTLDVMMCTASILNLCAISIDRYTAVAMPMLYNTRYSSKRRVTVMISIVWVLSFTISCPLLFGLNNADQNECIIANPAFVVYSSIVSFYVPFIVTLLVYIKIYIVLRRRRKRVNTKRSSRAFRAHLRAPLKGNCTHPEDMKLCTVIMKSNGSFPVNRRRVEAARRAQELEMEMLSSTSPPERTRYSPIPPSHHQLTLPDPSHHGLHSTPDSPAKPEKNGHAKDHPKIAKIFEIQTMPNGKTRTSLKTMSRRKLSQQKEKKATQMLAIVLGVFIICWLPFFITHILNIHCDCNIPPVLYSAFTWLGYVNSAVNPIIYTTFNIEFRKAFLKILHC
Chain of h5-HT1A (P08908 whole entry): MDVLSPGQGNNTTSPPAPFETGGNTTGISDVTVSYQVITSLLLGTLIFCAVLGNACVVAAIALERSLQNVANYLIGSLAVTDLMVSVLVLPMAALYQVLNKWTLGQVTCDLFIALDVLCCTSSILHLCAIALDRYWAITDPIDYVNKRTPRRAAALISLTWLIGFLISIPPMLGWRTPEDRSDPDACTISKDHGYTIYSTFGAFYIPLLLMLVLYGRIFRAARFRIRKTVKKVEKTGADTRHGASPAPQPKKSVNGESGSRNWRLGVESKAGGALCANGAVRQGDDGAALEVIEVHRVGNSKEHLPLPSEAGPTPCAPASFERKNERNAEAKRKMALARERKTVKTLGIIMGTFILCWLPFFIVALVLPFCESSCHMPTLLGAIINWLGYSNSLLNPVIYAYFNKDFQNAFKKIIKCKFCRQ
Chain of h5-HT7b (P34969 1-432 limits assumed): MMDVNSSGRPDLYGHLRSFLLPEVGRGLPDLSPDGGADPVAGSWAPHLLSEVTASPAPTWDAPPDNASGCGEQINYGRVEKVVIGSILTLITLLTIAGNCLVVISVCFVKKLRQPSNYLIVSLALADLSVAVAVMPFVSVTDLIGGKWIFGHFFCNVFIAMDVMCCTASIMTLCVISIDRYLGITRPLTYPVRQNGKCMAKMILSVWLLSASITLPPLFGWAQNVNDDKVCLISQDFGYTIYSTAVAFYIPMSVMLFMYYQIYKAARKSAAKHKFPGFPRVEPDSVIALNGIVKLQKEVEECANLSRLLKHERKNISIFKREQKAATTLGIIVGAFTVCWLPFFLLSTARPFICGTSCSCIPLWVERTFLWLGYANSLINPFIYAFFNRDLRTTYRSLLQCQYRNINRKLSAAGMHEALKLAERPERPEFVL
Chain of h5-HT2AR (P28223 whole entry, looked up): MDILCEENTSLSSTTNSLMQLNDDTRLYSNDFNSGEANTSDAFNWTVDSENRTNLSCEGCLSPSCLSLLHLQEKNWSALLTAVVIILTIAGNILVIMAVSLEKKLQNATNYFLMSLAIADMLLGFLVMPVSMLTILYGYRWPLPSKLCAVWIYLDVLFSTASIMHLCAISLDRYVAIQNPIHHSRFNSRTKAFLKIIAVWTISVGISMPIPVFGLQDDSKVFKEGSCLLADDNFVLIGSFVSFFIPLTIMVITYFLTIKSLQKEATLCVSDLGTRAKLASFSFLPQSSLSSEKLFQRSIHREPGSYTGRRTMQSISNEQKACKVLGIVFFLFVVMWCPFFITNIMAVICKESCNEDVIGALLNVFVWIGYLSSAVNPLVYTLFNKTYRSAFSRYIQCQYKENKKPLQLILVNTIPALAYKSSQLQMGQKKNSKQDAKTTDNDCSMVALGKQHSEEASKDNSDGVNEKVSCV
Chain of h5-HT3R (P46098 24-478): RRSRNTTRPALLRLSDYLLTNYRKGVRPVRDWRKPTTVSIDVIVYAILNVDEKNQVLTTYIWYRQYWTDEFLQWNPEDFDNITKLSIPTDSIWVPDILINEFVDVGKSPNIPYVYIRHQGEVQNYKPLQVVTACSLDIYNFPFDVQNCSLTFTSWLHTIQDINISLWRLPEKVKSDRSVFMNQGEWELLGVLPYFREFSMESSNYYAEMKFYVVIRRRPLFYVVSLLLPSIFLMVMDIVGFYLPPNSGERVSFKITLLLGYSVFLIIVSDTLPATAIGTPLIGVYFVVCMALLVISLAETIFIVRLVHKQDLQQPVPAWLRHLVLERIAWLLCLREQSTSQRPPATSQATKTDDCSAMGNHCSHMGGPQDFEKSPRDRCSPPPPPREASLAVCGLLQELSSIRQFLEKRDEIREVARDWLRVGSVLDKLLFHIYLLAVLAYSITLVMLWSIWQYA
Description for h5-HT1A: as §1, §2
Description for h5-HT2AR: as §1, §2
Description for h5-HT3R: All recordings were obtained from a holding potential of -60 mV. To establish the baseline response, serotonin was added at the concentration corresponding to its EC80 value. Subsequently, the test compound was characterized in a dose–response protocol at the concentration ranges from 10^–6 to 10^–11 M, with 30 s preincubation, followed by the addition of 5-HT at its EC80 in the presence of the compound for 2 s.
Peak inward currents were measured in response to the serotonin additions in the presence of a single concentration of the compound. Obtained data have been normalized to the baseline peak current induced by the addition of EC80 serotonin for 2 s, according to eq 1 [drawing 4] 1 Received data were analyzed using a four-parameter logistic equation in GraphPad Prism software.
Description for h5-HT7b: as §1, §2
Description for hD2L: as §1, §2

For `CN1CCN(c2nc3ccccc3c3[nH]ccc23)CC1` [Compound 5d, 4-(4-Methylpiperazin-1-yl)-1H-pyrrolo[3,2-c]quinoline], the “functional classification at 5-HT3R” value on 5-HT3R is listed as “agonist”. For the same compound, at h5-HT6R [1], affinity was put at a Ki of 245 nM. The compound also yielded a Kb on h5-HT6R [2] (Kb) of more than 10000 nM.

Turning to `CC(C)c1ccc(S(=O)(=O)n2ccc3c(N4CCNCC4)nc4ccccc4c32)cc1` [Compound 24, 1-[(4-iso-Propylphenyl)sulfonyl]-4-(piperazin-1-yl)-1H-pyrrolo[3,2-c]quinoline dihydrochloride], the antagonist effect on 5-HT3R (300 nM) is 38 (300 nM) %; at h5-HT6R [2], 65%. Moreover, the Ki on h5-HT6R [1] (setting [5]) was 14 nM.

Turning to `O=S(=O)(c1ccccc1Br)n1ccc2c(N3CCNCC3)nc3ccccc3c21` [Compound 15, 1-[(2-Bromophenyl)sulfonyl]-4-(piperazin-1-yl)-1H-pyrrolo[3,2-c]quinoline dihydrochloride], the Ki on h5-HT6R [1] (setting [5]) was determined as 13 nM. Moreover, the antagonist effect at h5-HT6R [2] is 69%.

Consider `c1ccc2c(c1)nc(N1CCNCC1)c1cc[nH]c12` [Compound 5e, 4-(Piperazin-1-yl)-1H-pyrrolo[3,2-c]quinoline], for which the “functional classification at 5-HT3R” value at 5-HT3R is listed as “partial agonist”. Further, the Ki on h5-HT6R [1] amounted to 757 nM. This compound gave a Kb on h5-HT6R [2] (Kb) of more than 10000 nM.

In the case of `Cc1cccc(S(=O)(=O)n2ccc3c(N4CCNCC4)nc4ccccc4c32)c1` [Compound 20, 1-[(3-Methylphenyl)sulfonyl]-4-(piperazin-1-yl)-1H-pyrrolo[3,2-c]quinoline dihydrochloride], the antagonist effect at 5-HT3R (30 nM) is reported as 20%; at 5-HT3R (100 nM) it was 40%. The Ki came to 4140 nM at h5-HT7b, 4630 nM at h5-HT2AR, 2160 nM at hD2L and 760 nM at h5-HT1A.

On to `O=S(=O)(c1ccc(F)cc1)n1ccc2c(N3CCNCC3)nc3ccccc3c21` [Compound 22, 1-[(4-Fluorophenyl)sulfonyl]-4-(piperazin-1-yl)-1H-pyrrolo[3,2-c]quinoline dihydrochloride], for which the antagonist effect is on record as 48 (300 nM) % on 5-HT3R (300 nM) and 72% at h5-HT6R [2]. This compound registered a Ki at h5-HT6R [1] (setting [5]) of 18 nM.

Consider `O=C1c2cccc3c2[C@H](CCC3)CN1[C@@H]1CN2CCC1CC2` [palonosetron], for which the IC50 on h5-HT3R was found to be 1.7 nM.

Take `Cc1nccn1CC1CCc2c(c3ccccc3n2C)C1=O` (centres unmarked) [ondansetron, reference compound]: the “effect on spontaneous activity” value in the data set on male Sprague–Dawley rats [3] (ondansetron 0.5 mg/kg IP) is “neither compound affected spontaneous activity”. Further, the pA2 entry on 5-HT3R (antagonist potency, Schild analysis, guinea pig ileum) is reported as “pA2 = 7.11 ± 0.12”. Moreover, the Kb at h5-HT6R [2] (read-out: Kb) was found to be 58200 nM.

`O=S(=O)(c1ccc(C(F)(F)F)cc1)n1ccc2c(N3CCNCC3)nc3ccccc3c21` [Compound 23, 1-{[4-(Trifluoromethyl)phenyl]sulfonyl}-4-(piperazin-1-yl)-1H-pyrrolo[3,2-c]quinoline dihydrochloride]: on h5-HT6R [1] (setting [5]), the Ki came to 34 nM. This compound returned an antagonist effect on h5-HT6R [2] of 63%.

With `O=S(=O)(c1cccc(Cl)c1)n1ccc2c(N3CCNCC3)nc3ccccc3c21` [Compound 18, 1-[(3-Chlorophenyl)sulfonyl]-4-(piperazin-1-yl)-1H-pyrrolo[3,2-c]quinoline dihydrochloride], the antagonist effect was 11% on 5-HT3R (100 nM) and 72% on 5-HT3R (300 nM). Moreover, the Ki on h5-HT7b was 1790 nM; at h5-HT2AR it was 1670 nM; on hD2L, 1340 nM; on h5-HT1A, 773 nM.

`O=S(=O)(c1ccccc1)n1ccc2c(N3CCNCC3)nccc21` [II, reference compound] returned a Ki on h5-HT6R [1] of 6 nM. This compound gave a Kb at h5-HT6R [2] (Kb) of 1 nM.

On to `COc1ccc(S(=O)(=O)Nc2cc(Cl)cc(Cl)c2OC)cc1N1CCNCC1` [SB399885], for which the “effect on PCP-induced hyperactivity” value in the data set with male Sprague–Dawley rats [4] (SB399885 1 mg/kg IP, AUC post-PCP vs vehicle) was “enhances PCP-induced hyperactivity compared with vehicle”; in the data set with male Sprague–Dawley rats [4] (SB399885 alone IP, doses up to 9 mg/kg, AUC 1st and 2nd hour post-PCP), “did not affect PCP-induced hyperactivity”. For the same compound, the “effect on spontaneous activity” value in the data set with male Sprague–Dawley rats [3] (SB399885 1 mg/kg IP) is recorded as “neither compound affected spontaneous activity”; with male Sprague–Dawley rats [3] (SB399885 9 mg/kg IP), “sedative-like action”.

For orientation: Ki means a dissociation constant, usually derived from enzyme kinetics or from competition with a known ligand. Low readings indicate a stronger hold on the target, high ones a looser hold on the target. As usually defined, the IC50 is the concentration that inhibits the measured activity by half. Low values mean higher potency, high ones lower potency.
